Experimental data reported in patent publication US4920124A, “N-substituted 3,4-dihydropyrimidine compounds as agents for treating disorders of cardiovascular system” (Suntory Limited, priority 1987, dated 1990).

How the values were obtained:
vertebral artery [1] = test: time course of changes in the vascular resistance of the vertebral artery in anesthetized dogs (T1/2); type: in vivo, dog; settings: injected with the ED30 doses
Description: Adult dogs of either sex (7~14 kg in body weight) were anesthetized with at first thiopental sodium (35 mg/kg, intraperitoneal), anesthetized with urethane (400 mg/kg, intravenous) and chloralose (60 mg/kg, intravenous) and kept under artificial respiration throughout the experiment. After thoracotomy at the left first intercostal space, the vertebral artery was exposed and blood flow was measured with intracorporeal flow probe connected to an electromagnetic flowmeter (MF-27, Nihon Kohden).
At the same time, continuous measurement of the following parameters was made: systemic blood pressure (mean pressure) at the right femoral artery, the limb lead II ECG, the heart rate with a tachometer triggered by the R wave of ECG, and the vascular resistance determined by loading a electronic divider unit (EO-601 G, Nihon Kohden) with the mean values of blood pressure and vertebral artery blood flow. All of these parameters were recorded simultaneously on a polygraph (RM-600, Nihon Kohden).
All the test compounds were injected through a cannula inserted into the femoral vein.
Selected compounds of the present invention were tested for their ability to reduce the resistance of the vertebral artery in anesthetized dogs.
The animals were injected with the ED30 doses of test compounds and the time course of changes in the vascular resistance were studied in the same manner as in Example 26. The time course of changes can be as shown schematically in FIG. 1. From the curve shown in FIG. 1, the values of T1/2 (min) (the time to reach 50% of the resistance drop) were calculated. The results are shown in Table 3, in which the compound numbers correspond to the Example numbers.

vertebral artery [2] = test: vascular resistance of the vertebral artery in anesthetized dogs (ED30); type: in vivo, dog; settings: Canis lupus familiaris, intravenous injection

Structure (SMILES) | T1/2 (the time to reach 50% of the resistance drop) (vertebral artery [1]) [min] | ED30 (vertebral artery [2]) [µg/kg]
CC1=NC(C)=C(C(=O)OC(C)C)C(c2ccccc2[N+](=O)[O-])N1C(=O)OCCN(Cc1ccccc1)Cc1ccc(Cl)c(Cl)c1 (centres unmarked) [Example 1, 3-[2-{N-benzyl-N-(3,4-dichlorobenzyl)amino}ethoxycarbonyl]-5-isopropoxycarbonyl-2,6-dimethyl-4-(2-nitrophenyl)-3,4-dihydropyrimidine] | > 25.0 | 2.1
COc1ccc(CN(CCOC(=O)N2C(C)=NC(C)=C(C(=O)OC(C)C)C2c2ccccc2[N+](=O)[O-])Cc2ccccc2)cc1 (centres unmarked) [Example 2] | 8.2 | 1.8
CC1=NC(C)=C(C(=O)OC(C)C)C(c2ccccc2[N+](=O)[O-])N1C(=O)OCCN(Cc1ccccc1)Cc1ccc(F)cc1 (centres unmarked) [Example 3] | – | 2.6
CC1=NC(C)=C(C(=O)OC(C)C)C(c2ccccc2[N+](=O)[O-])N1C(=O)OCCN(Cc1ccccc1)Cc1ccc(Cl)cc1 (centres unmarked) [Example 4] | – | 2.9
CC1=NC(C)=C(C(=O)OC(C)C)C(c2ccccc2[N+](=O)[O-])N1C(=O)OCCN(Cc1ccccc1)Cc1ccc(C)cc1 (centres unmarked) [Example 5] | – | 2.8
CC1=NC(C)=C(C(=O)OC(C)C)C(c2ccccc2[N+](=O)[O-])N1C(=O)OCCN(Cc1ccc(F)cc1)Cc1ccc(F)cc1 (centres unmarked) [Example 6] | – | 1.3
CC1=NC(C)=C(C(=O)OC(C)C)C(c2ccccc2[N+](=O)[O-])N1C(=O)OCCN(Cc1ccccc1)Cc1ccccc1F (centres unmarked) [Example 9] | – | 2.3
COc1cccc(CN(CCOC(=O)N2C(C)=NC(C)=C(C(=O)OC(C)C)C2c2ccccc2[N+](=O)[O-])Cc2ccccc2)c1 (centres unmarked) [Example 10] | – | 1.8
CC1=NC(C)=C(C(=O)OC(C)C)C(c2ccccc2[N+](=O)[O-])N1C(=O)OCCN(Cc1ccccc1)Cc1cccc(F)c1 (centres unmarked) [Example 11] | – | 2.1
CC1=NC(C)=C(C(=O)OC(C)C)C(c2ccccc2[N+](=O)[O-])N1C(=O)OCCN(Cc1ccccc1)Cc1ccccc1Cl (centres unmarked) [Example 13] | – | 4.7
CC1=NC(C)=C(C(=O)OC(C)C)C(c2ccccc2[N+](=O)[O-])N1C(=O)OCCN(Cc1ccccc1)Cc1cccc(Cl)c1 (centres unmarked) [Example 14] | 10.6 | –
CC1=NC(C)=C(C(=O)OC(C)C)C(c2ccccc2[N+](=O)[O-])N1C(=O)OCCN(Cc1ccccc1)Cc1ccc(Cl)cc1Cl (centres unmarked) [Example 15] | > 20.0 | –
CC1=NC(C)=C(C(=O)OC(C)C)C(c2ccccc2[N+](=O)[O-])N1C(=O)OCCN(Cc1ccccc1)Cc1ccc(C(F)(F)F)cc1 (centres unmarked) [Example 16] | 7.9 | –
CC1=NC(C)=C(C(=O)OC(C)C)C(c2ccccc2[N+](=O)[O-])N1C(=O)OCCN(Cc1ccc(Cl)cc1)Cc1ccc([N+](=O)[O-])cc1 (centres unmarked) [Example 20] | 10.2 | –
COc1ccc(CN(CCOC(=O)N2C(C)=NC(C)=C(C(=O)OC(C)C)C2c2ccccc2[N+](=O)[O-])Cc2ccc(Cl)c(Cl)c2)cc1 (centres unmarked) [Example 21] | 20.0 | –
CC1=NC(C)=C(C(=O)OC(C)C)C(c2ccccc2[N+](=O)[O-])N1C(=O)OCCN(Cc1ccc(Cl)cc1)Cc1cccc(Cl)c1 (centres unmarked) [Example 22] | 19.5 | –
CC1=NC(C)=C(C(=O)OC(C)C)C(c2cccc([N+](=O)[O-])c2)N1C(=O)OCCN(Cc1ccccc1)Cc1ccc(Cl)c(Cl)c1 (centres unmarked) [Example 24, 3-[2-{N-benzyl-N-(3,4-dichlorobenzyl)amino}ethoxycarbonyl]-5-isopropoxycarbonyl-2,6-dimethyl-4-(3-nitrophenyl)-3,4-dihydropyrimidine] | 16.0 | –
CC1=NC(C)=C(C(=O)OC(C)C)C(c2ccccc2[N+](=O)[O-])N1C(=O)OCCN(Cc1ccccc1)Cc1c(Cl)cccc1Cl (centres unmarked) [Example 25] | 11.7 | –
